In the supplement of paper PMC10307832:

Legend:
Assay in all cases: relative viability (nuclei count vs DMSO), 5 days (fraction); higher = more cells survive
5-Fluorouracil + OSI-027 = compound: O=c1[nH]cc(F)c(=O)[nH]1 [5-Fluorouracil] + COc1cccc2cc(-c3nc([C@H]4CC[C@H](C(=O)O)CC4)n4ncnc(N)c34)[nH]c12 [OSI-027] (partner 0.5 µM)
How it was run: (§1)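 Values are medians from duplicate plates. Each reflects relative viability, defined as the nuclei count of treated wells over that of vehicle wells. Lung cancer cell lines in 1536-well plates were pin-tool dosed one day after seeding with one drug alone or with a fixed anchor-drug dose plus five library-drug doses (not always all listed) in √10 steps, then fixed, stained and imaged at 4× after 5 days.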

Sulindac + Luminespib = compound: CC1=C(CC(=O)O)c2cc(F)ccc2/C1=C\c1ccc([S+](C)[O-])cc1 [Sulindac] + CCNC(=O)c1noc(-c2cc(C(C)C)c(O)cc2O)c1-c1ccc(CN2CCOCC2)cc1 [Luminespib] (partner 0.01 µM)
How it was run: as §1

[1] = compound: CN[C@@H]1C[C@H]2O[C@@](C)([C@@H]1OC)n1c3ccccc3c3c4c(c5c6ccccc6n2c5c31)C(=O)NC4 [Staurosporine] + CC1(C)CCC(c2ccc(Cl)cc2)=C(CN2CCN(c3ccc(C(=O)NS(=O)(=O)c4ccc(N[C@H](CCN5CCOCC5)CSc5ccccc5)c(S(=O)(=O)C(F)(F)F)c4)cc3)CC2)C1 [Navitoclax] (partner 0.5 µM)
How it was run: as §1

Sulindac + Lapatinib = compound: CC1=C(CC(=O)O)c2cc(F)ccc2/C1=C\c1ccc([S+](C)[O-])cc1 [Sulindac] + CS(=O)(=O)CCNCc1ccc(-c2ccc3ncnc(Nc4ccc(OCc5cccc(F)c5)c(Cl)c4)c3c2)o1 [Lapatinib] (partner 2 µM)
How it was run: as §1

Row | Cell Line | relative viability (5-Fluorouracil + OSI-027; first compound 0.02 µM) | relative viability (5-Fluorouracil + OSI-027; first compound 0.2 µM) | relative viability (5-Fluorouracil + OSI-027; first compound 0.6325 µM) | relative viability (5-Fluorouracil + OSI-027; first compound 2 µM) | relative viability (Sulindac + Luminespib; first compound 0.08 µM) | relative viability (Sulindac + Luminespib; first compound 0.253 µM) | relative viability (Sulindac + Luminespib; first compound 0.8 µM) | relative viability (Sulindac + Luminespib; first compound 2.53 µM) | relative viability (Sulindac + Luminespib; first compound 8 µM) | relative viability ([1]; first compound 0.005 µM) | relative viability ([1]; first compound 0.01581 µM) | relative viability ([1]; first compound 0.05 µM) | relative viability ([1]; first compound 0.1581 µM) | relative viability ([1]; first compound 0.5 µM) | relative viability (Sulindac + Lapatinib; first compound 0.08 µM) | relative viability (Sulindac + Lapatinib; first compound 0.253 µM) | relative viability (Sulindac + Lapatinib; first compound 0.8 µM) | relative viability (Sulindac + Lapatinib; first compound 8 µM) | relative viability (Sulindac + Lapatinib; first compound 2.53 µM)
1 | LCLC-97TM1 | 0.392 | 0.531 | 0.557 | 0.379 | 0.978 | 0.847 | 0.673 | 0.644 | 0.876 | 0.732 | 0.283 | 0.286 | 0.31 | 0.223 | 0.962 | 1.45 | 0.83 | 1.37 | –
2 | LC-2-ad | 0.91 | 0.582 | 0.404 | 0.322 | 1.03 | 0.947 | 1.07 | 0.994 | 1.18 | 0.473 | 0.202 | 0.172 | 0.0798 | 0.0689 | 1.1 | 1.04 | 0.893 | 1.02 | 1.02
3 | NCI-H1666 | 0.869 | 0.551 | 0.488 | 0.508 | 1.04 | 1.03 | 0.955 | 1 | 1.1 | 0.722 | 0.554 | 0.395 | 0.324 | 0.202 | – | 0.738 | 0.491 | 0.753 | 0.696
4 | EKVX | – | – | 0.148 | 0.134 | 0.755 | 0.792 | 0.768 | 0.887 | 0.897 | 0.306 | 0.222 | 0.254 | 0.168 | 0.112 | 0.193 | 0.186 | 0.21 | 0.111 | 0.18
5 | SW 1573 | 0.548 | 0.73 | 0.633 | 0.327 | 0.197 | 0.25 | 0.242 | 0.293 | 0.284 | 0.898 | 0.297 | 0.193 | 0.0915 | 0.0731 | 1.11 | 1.3 | 1.02 | 1.28 | 1.1
6 | HCC-827 | 0.767 | 0.832 | 0.681 | 0.391 | 0.566 | 0.916 | 0.475 | 0.606 | 0.412 | 1.06 | – | 0.768 | 0.725 | 0.488 | 0.247 | 0.183 | 0.192 | 0.184 | 0.181
7 | NCI-H727 | 0.639 | 0.651 | 0.647 | 0.574 | 0.223 | 0.338 | – | 0.299 | 0.443 | 0.285 | 0.251 | 0.265 | 0.193 | 0.18 | 0.968 | 0.799 | 0.767 | 1.19 | 0.699
8 | CAL-12T | 0.771 | 0.625 | 0.385 | 0.352 | 0.556 | 0.3 | 0.311 | 0.485 | 0.524 | 0.285 | 0.314 | 0.152 | 0.13 | 0.0943 | 0.697 | 0.64 | 0.583 | 0.806 | 0.545
9 | EPLC-272H | 0.272 | 0.257 | 0.263 | 0.212 | 0.211 | 0.167 | – | 0.262 | 0.255 | 1.34 | 0.463 | 0.409 | 0.163 | 0.19 | 0.987 | – | 0.602 | 1.24 | 0.78
10 | A-427 | 0.461 | 0.557 | 0.359 | 0.259 | 1.05 | 0.835 | 1.06 | 0.781 | 1.07 | 0.943 | 0.639 | 0.254 | 0.204 | – | 1.23 | 1.02 | 1.07 | 1.1 | 1.05
11 | NCI-H1993 | 0.565 | 0.501 | 0.538 | 0.537 | 0.718 | 0.774 | 0.645 | 0.961 | 0.988 | 1.04 | 0.645 | 0.54 | 0.44 | 0.435 | 0.837 | 0.801 | 0.757 | 0.805 | 0.77
12 | SK-LU-1 | 0.374 | 0.309 | 0.342 | 0.321 | 0.193 | 0.204 | 0.175 | 0.202 | 0.215 | 0.323 | 0.115 | 0.131 | 0.151 | 0.059 | 0.981 | 0.918 | – | 0.9 | 0.839
13 | NCI-H1915 | 0.561 | 0.616 | 0.591 | 0.525 | 1.07 | 0.883 | – | 0.909 | 0.813 | 0.829 | – | 0.449 | 0.369 | 0.26 | 1.24 | 1.09 | 0.842 | 1.1 | 0.913
14 | COR-L 105 | 0.649 | 0.899 | 0.66 | 0.443 | 0.677 | 0.66 | 0.724 | 0.793 | 0.792 | 0.573 | 0.275 | 0.258 | 0.272 | 0.242 | 0.348 | 0.34 | 0.408 | 0.412 | 0.324
15 | NCI-H2009 | 0.618 | 0.674 | 0.478 | 0.379 | 1.15 | 1.01 | 1.05 | 0.986 | 1.15 | 0.42 | 0.38 | 0.189 | 0.19 | 0.0825 | 1.02 | 0.949 | 0.87 | 1.05 | 0.946
16 | NCI-H1437 | 0.495 | 0.23 | 0.205 | 0.188 | 1.33 | 1.1 | 0.912 | 1.25 | 1.25 | 0.982 | 0.865 | 0.695 | 0.189 | 0.101 | 0.884 | 1.01 | 0.593 | 1.1 | 0.856
